In patent publication US10202658B2, “Methods for determining hypersusceptibility of HIV-1 to non-nucleoside reverse transcriptase inhibitors” (Monogram Biosciences, Inc., priority 2005, dated 2019):

Test system: HIV-1 clinical isolates grouped by RT mutations
Assay: Pairwise comparison of NNRTI fold change between groups of clinical isolates (Student's T-test, Bonferroni's Multiple Comparison Test)
Assay type: cell-based
Description: This example provides methods and compositions for identifying mutations that correlate with hypersusceptibility to a NNRTI. Resistance test vectors were constructed and used as described in Example 1. Resistance test vectors derived from patient samples or clones derived from the resistance test vector pools were tested in a resistance assay to determine accurately and quantitatively the relative EFV, DLV, or NVP resistance or susceptibility compared to the median observed resistance or susceptibility.
To identify mutations associated with NNRTI hypersusceptibility, the following analysis was performed. […] The TAMs referenced in. Table 1 include M41L, D67N, K70R, L210W, T215FY, and K219X, while the NAMs referenced include K65R, T69X, L74IV, V75X, and M184IV. Isolates without NRTI, NNRTI or PI mutations served as a wild type (WT) reference group. Further comparison groups comprised isolates with three TAMS including T215Y (+/−H208Y, +/−V118I) or three TAMS including K70R. Scatter plots and statistical tests (See FIGS. 1-6) were generated using Prism 4.0 (GraphPad, San Diego, Calif.)
In addition, a pairwise comparison between two sets of data was conducted using Bonferroni's Multiple Comparison Test using the Prism 4.0 software. The results of the comparison are presented in Tables 2, 3, and 4, appended to the end of this document. Samples with K65R, K65R+M184V, or 2 TAMs in combination with T215Y had over 40% with EFV FC<0.4.

## O=C1Nc2ccc(Cl)cc2[C@@](C#CC2CC2)(C(F)(F)F)O1 [EFV, efavirenz]
1 NAM vs 2 NAMs
  Mean Diff. of fold change: 0.1722
1 NAM vs 3 NAMs
  Mean Diff. of fold change: 0.1256
1 NAM vs K65R
  Mean Diff. of fold change: 0.1565
1 NAM vs K65R + M184V
  Mean Diff. of fold change: 0.2694
1 NAM vs K70R_3_TAMs
  Mean Diff. of fold change: −0.02778
1 NAM vs M184V
  Mean Diff. of fold change: 0.001657
1 NAM vs T69
  Mean Diff. of fold change: −0.09534
1 NAM vs T215Y_3_TAMs
  Mean Diff. of fold change: 0.2651
1 NAM vs T215Y_3_TAMs_118
  Mean Diff. of fold change: 0.3291
1 NAM vs T215Y_3_TAMs_208
  Mean Diff. of fold change: 0.3294
1 NAM vs T215Y_3_TAMs_no118
  Mean Diff. of fold change: 0.2225
1 NAM vs T215Y_3_TAMs_no208
  Mean Diff. of fold change: 0.2549
2 NAMs vs 3 NAMs
  Mean Diff. of fold change: −0.04654
2 NAMs vs K65R
  Mean Diff. of fold change: −0.01562
2 NAMs vs K65R + M184V
  Mean Diff. of fold change: 0.09723
2 NAMs vs K70R_3_TAMs
  Mean Diff. of fold change: −0.1999
2 NAMs vs M184V
  Mean Diff. of fold change: −0.1705
2 NAMs vs T69
  Mean Diff. of fold change: −0.2675
2 NAMs vs T215Y_3_TAMs
  Mean Diff. of fold change: 0.09297
2 NAMs vs T215Y_3_TAMs_118
  Mean Diff. of fold change: 0.1569
2 NAMs vs T215Y_3_TAMs_208
  Mean Diff. of fold change: 0.1573
2 NAMs vs T215Y_3_TAMs_no118
  Mean Diff. of fold change: 0.05035
2 NAMs vs T215Y_3_TAMs_no208
  Mean Diff. of fold change: 0.08272
3 NAMs vs K65R
  Mean Diff. of fold change: 0.03092
3 NAMs vs K65R + M184V
  Mean Diff. of fold change: 0.1438
3 NAMs vs K70R_3_TAMs
  Mean Diff. of fold change: −0.1534
3 NAMs vs M184V
  Mean Diff. of fold change: −0.124
3 NAMs vs T69
  Mean Diff. of fold change: −0.221
3 NAMs vs T215Y_3_TAMs
  Mean Diff. of fold change: 0.1395
3 NAMs vs T215Y_3_TAMs_118
  Mean Diff. of fold change: 0.2035
3 NAMs vs T215Y_3_TAMs_208
  Mean Diff. of fold change: 0.2038
3 NAMs vs T215Y_3_TAMs_no118
  Mean Diff. of fold change: 0.09689
3 NAMs vs T215Y_3_TAMs_no208
  Mean Diff. of fold change: 0.1293
K65R + M184V vs K70R_3_TAMs
  Mean Diff. of fold change: −0.2972
K65R + M184V vs T215Y_3_TAMs
  Mean Diff. of fold change: −0.004258
K65R + M184V vs T215Y_3_TAMs_118
  Mean Diff. of fold change: 0.05968
K65R + M184V vs T215Y_3_TAMs_208
  Mean Diff. of fold change: 0.06005
K65R + M184V vs T215Y_3_TAMs_no118
  Mean Diff. of fold change: −0.04688
K65R + M184V vs T215Y_3_TAMs_no208
  Mean Diff. of fold change: −0.01451
K65R vs K65R + M184V
  Mean Diff. of fold change: 0.1129
K65R vs K70R_3_TAMs
  Mean Diff. of fold change: −0.1843
K65R vs M184V
  Mean Diff. of fold change: −0.1549
K65R vs T69
  Mean Diff. of fold change: −0.2519
K65R vs T215Y_3_TAMs
  Mean Diff. of fold change: 0.1086
K65R vs T215Y_3_TAMs_118
  Mean Diff. of fold change: 0.1725
K65R vs T215Y_3_TAMs_208
  Mean Diff. of fold change: 0.1729
K65R vs T215Y_3_TAMs_no118
  Mean Diff. of fold change: 0.06597
K65R vs T215Y_3_TAMs_no208
  Mean Diff. of fold change: 0.09835
K70R_3_TAMs vs T215Y_3_TAMs_118
  Mean Diff. of fold change: 0.3569
K70R_3_TAMs vs T215Y_3_TAMs_no118
  Mean Diff. of fold change: 0.2503
M184V vs K65R + M184V
  Mean Diff. of fold change: 0.2677
M184V vs K70R_3_TAMs
  Mean Diff. of fold change: −0.02944
M184V vs T69
  Mean Diff. of fold change: −0.09699
M184V vs T215Y_3_TAMs
  Mean Diff. of fold change: 0.2635
M184V vs T215Y_3_TAMs_118
  Mean Diff. of fold change: 0.3274
M184V vs T215Y_3_TAMs_208
  Mean Diff. of fold change: 0.3278
M184V vs T215Y_3_TAMs_no118
  Mean Diff. of fold change: 0.2209
M184V vs T215Y_3_TAMs_no208
  Mean Diff. of fold change: 0.2532
T69 vs K65R + M184V
  Mean Diff. of fold change: 0.3647
T69 vs K70R_3_TAMs
  Mean Diff. of fold change: 0.06756
T69 vs T215Y_3_TAMs
  Mean Diff. of fold change: 0.3605
T69 vs T215Y_3_TAMs_118
  Mean Diff. of fold change: 0.4244
T69 vs T215Y_3_TAMs_208
  Mean Diff. of fold change: 0.4248
T69 vs T215Y_3_TAMs_no118
  Mean Diff. of fold change: 0.3179
T69 vs T215Y_3_TAMs_no208
  Mean Diff. of fold change: 0.3502
T215Y_3_TAMs vs K70R_3_TAMs
  Mean Diff. of fold change: −0.2929
T215Y_3_TAMs vs T215Y_3_TAMs_118
  Mean Diff. of fold change: 0.06394
T215Y_3_TAMs vs T215Y_3_TAMs_208
  Mean Diff. of fold change: 0.06431
T215Y_3_TAMs vs T215Y_3_TAMs_no118
  Mean Diff. of fold change: −0.04263
T215Y_3_TAMs vs T215Y_3_TAMs_no208
  Mean Diff. of fold change: −0.01025
T215Y_3_TAMs_208 vs K70R_3_TAMs
  Mean Diff. of fold change: −0.3572
T215Y_3_TAMs_208 vs T215Y_3_TAMs_118
  Mean Diff. of fold change: −0.0003693
T215Y_3_TAMs_208 vs T215Y_3_TAMs_no118
  Mean Diff. of fold change: −0.1069
T215Y_3_TAMs_208 vs T215Y_3_TAMs_no208
  Mean Diff. of fold change: −0.07456
T215Y_3_TAMs_no118 vs T215Y_3_TAMs_118
  Mean Diff. of fold change: 0.1066
T215Y_3_TAMs_no208 vs K70R_3_TAMs
  Mean Diff. of fold change: −0.2827
T215Y_3_TAMs_no208 vs T215Y_3_TAMs_118
  Mean Diff. of fold change: 0.07419
T215Y_3_TAMs_no208 vs T215Y_3_TAMs_no118
  Mean Diff. of fold change: −0.03237
All groups containing NAMs or the combination of TAMs shown in Table 1, p<0.0001, Student's T-test
  mean fold change (FC) compared to the WT population: significantly lower
Wt vs 1 NAM
  Mean Diff. of fold change: 0.2652
Wt vs 2 NAMs
  Mean Diff. of fold change: 0.4373
Wt vs 3 NAMs
  Mean Diff. of fold change: 0.3908
Wt vs K65R
  Mean Diff. of fold change: 0.4217
Wt vs K65R + M184V
  Mean Diff. of fold change: 0.5346
Wt vs K70R_3_TAMs
  Mean Diff. of fold change: 0.2374
Wt vs M184V
  Mean Diff. of fold change: 0.2668
Wt vs T69
  Mean Diff. of fold change: 0.1698
Wt vs T215Y_3_TAMs
  Mean Diff. of fold change: 0.5303
Wt vs T215Y_3_TAMs_118
  Mean Diff. of fold change: 0.5942
Wt vs T215Y_3_TAMs_208
  Mean Diff. of fold change: 0.5946
Wt vs T215Y_3_TAMs_no118
  Mean Diff. of fold change: 0.4877
Wt vs T215Y_3_TAMs_no208
  Mean Diff. of fold change: 0.5201
